US20090018194A1, “Use of antimicrobial agents derived from alliaceous plants for the prevention and control of crop diseases, post-harvest rot and as environmental disinifectant products” (DMC Research Center, S.L., priority 2007, published 2009)

Experiments:
[1] = tested on: Salmonella typhimurium ATCC 13311; test: agar diffusion test with impregnated cellulose discs; assay type: cell-based; conditions: incl. 6 mm disc
R. stolonifer = test: disinfection of artificially contaminated containers by drencher; design: species or system Rhizopus stolonifer; conditions: drencher 30 seconds
Procedure: A test of the disinfection of containers (fruit boxes and crates) was conducted in which a level of artificial contamination was created by means of controlled inoculation, with the objective of determining optimum doses of application to achieve a satisfactory disinfection. First the containers (made of wood and plastic) were disinfected with sodium hypochlorite, and they were then artificially contaminated via controlled inoculations with different fungi characteristic of the fruit and vegetable processing sector. For this purpose, isolated wild strains were used which, after sporulation, were collected to create a suspension of mixed spores of various fungi (Penicillium expansum, Penicillium italicum, Penicillium digitarum and Alternario alternata) and, separately in simultaneous tests (as a result of its higher rate of growth and its invasive character), a suspension of Rhizopus stolonifer. […] After this fogging, the containers were allowed to dry. The containers were then sampled to determine the level of initial contamination achieved (by means of contact plates containing Rose Bengal agar). The containers were then treated in a pilot line […]. The hold time of the containers under the showers was 30 seconds, and the test doses were 750 ppm and 1050 ppm for PTS and 2000 ppm and 5000 ppm in the case of PTSO. After exiting the showers, the treated containers were allowed to dry, and were again sampled using contact plates with Rose Bengal agar to determine the final level of contamination. The sampling unit was 3 containers and 3 plates per repetition.

[2] = tested on: Bacillus subtilis ATCC 6633; test: agar diffusion test with impregnated cellulose discs; assay type: cell-based; conditions: incl. 6 mm disc
post-harvest rot = post-harvest rot of oranges originating directly from the field (not inoculated); assay type: in vivo
Procedure: Once the oranges had been artificially contaminated, the treatments were conducted by immersing the oranges in solutions of PTS and PTSO prepared at doses of 1600 and 2500 ppm, and were stored at 20° C.
The assessment of the effectiveness of PTS and PTSO comprised counting of the number of fruits affected by rot in the inoculated zone, to determine the percentage of fruit affected for each treatment and fungus inoculated, and expressing this effectiveness as a percentage of reduction of the affected fruit.
On the basis of the results obtained by the application of PTS and PTSO to oranges of the Navelina variety originating directly from the field, both products, applied in the specified doses, are effective in the control of post-harvest rot. Both PTS and PTSO in turn reduce by 50% the quantity of fruit affected at the end of the refrigeration period (28 days at a temperature of 5° C.) compared to the untreated fruit, as a result of which they are an effective alternative to the synthetic treatments conventionally used.

fungal population = test: disinfection by drencher of naturally contaminated containers of a citrus fruit processing plant; conditions: PTS 750 mm
[3] = tested on: Bacillus cereus ATCC 10876; test: agar diffusion test with impregnated cellulose discs; assay type: cell-based; conditions: incl. 6 mm disc
Rhizopus stolonifer = test: disinfection of containers stored inside the rooms by fogging
[4] = tested on: Fungi mixture (P. expansum, P. italicum, P. digitatum and A. Alternata); test: as above
Penicillium digitatum = test: reduction of spores in suspension in absence or presence of organic matter; assay type: cell-based; conditions: PTS 750 ppm 1 min.
Source text: (§1) In addition, under the real conditions of a disinfecting bath for boxes, crates and containers, as well as for the disinfection of rooms and work surfaces, organic material (soil residue, rotten fruit, leaves etc.) is generally present, which can reduce the action of the disinfectant agent. Therefore, the effectiveness of PTS and PTSO has also been assessed in the presence of organic matter on two pathogens that cause post-harvest rot of stone fruit (Penicillium expansum) and citrus fruit (Penicillium digitatum).

Penicillium expansum = test: as above; assay type: cell-based; conditions: PTS 750 ppm 1 min.
Source text: as §1

[5] = tested on: mixture of fungi (P. expansum, P. italicum, P. digitatum and A. alternata); test: disinfection of rooms by means of fogging
[6] = tested on: Penicillium solitum Wild strain; test: agar diffusion test with impregnated cellulose discs; assay type: cell-based; conditions: incl. 6 mm disc
[7] = tested on: plants inoculated with mycorrhizal fungi; conditions: in vivo
[8] = tested on: Pseudomonas aeruginosa ATCC 9027; test: agar diffusion test with impregnated cellulose discs; assay type: cell-based; conditions: incl. 6 mm disc
[9] = tested on: Enteroccus faecalis ATCC 29212; test: as above; assay type: cell-based; conditions: incl. 6 mm disc
[10] = organic matter Absence, 0 hours
[11] = organic matter Absence, 2 hours
[12] = organic matter Absence, 3 hours
[13] = organic matter Presence, 0 hours
[14] = organic matter Presence, 1 hour
[15] = organic matter Presence, 2 hours
[16] = organic matter Presence, 3 hours

## CCCS[S+]([O-])CCC (centres unmarked) [PTS, Propyl Propyl Thiosulfinate]
[1]; 60 ppm
  diameter of the microbial inhibition halo: 11 mm
[1]; 125 ppm
  diameter of the microbial inhibition halo: 15 mm
[1]; 250 ppm
  diameter of the microbial inhibition halo: 22 mm
[1]; 500 ppm
  diameter of the microbial inhibition halo: 23 mm
[1]; 1000 ppm
  diameter of the microbial inhibition halo: 25 mm
R. stolonifer; 750 ppm, Plastic container
  Reduction of the population (%): 100%
R. stolonifer; 750 ppm, Wood container
  Reduction of the population (%): 94%
R. stolonifer; 1050 ppm, Plastic container
  Reduction of the population (%): 99%
R. stolonifer; 1050 ppm, Wood container
  Reduction of the population (%): 100%
[2]; 60 ppm
  diameter of the microbial inhibition halo: 32 mm
[2]; 125 ppm
  diameter of the microbial inhibition halo: 35 mm
[2]; 250 ppm
  diameter of the microbial inhibition halo: 40 mm
[2]; 500 ppm
  diameter of the microbial inhibition halo: 55 mm
[2]; 1000 ppm
  diameter of the microbial inhibition halo: 55 mm
post-harvest rot; 1666 ppm, oranges refrigerated for 28 days at 5° C., 200 fruits not inoculated
  % of fruit affected: 10%
post-harvest rot; specified doses, end of the refrigeration period (28 days at 5° C.)
  reduction of the quantity of fruit affected compared to the untreated fruit: 50%
Fungal population; Bottom of the pallet, Beginning of bath
  Reduction of the fungal population (%): 87%
Fungal population; Bottom of the pallet, End of bath
  Reduction of the fungal population (%): 79%
Fungal population; Side of the pallet, Beginning of bath
  Reduction of the fungal population (%): 97%
Fungal population; Side of the pallet, End of bath
  Reduction of the fungal population (%): 100%
[3]; 60 ppm
  diameter of the microbial inhibition halo: 15 mm
[3]; 125 ppm
  diameter of the microbial inhibition halo: 20 mm
[3]; 250 ppm
  diameter of the microbial inhibition halo: 25 mm
[3]; 500 ppm
  diameter of the microbial inhibition halo: 27 mm
[3]; 1000 ppm
  diameter of the microbial inhibition halo: 35 mm
Rhizopus stolonifer; 750 ppm, Plastic container
  Reduction of the population (%): 36%
Rhizopus stolonifer; 1050 ppm, Plastic container
  Reduction of the population (%): 27%
Rhizopus stolonifer; 1050 ppm, Wood container
  Reduction of the population (%): 26%
[4]; 750 ppm, Plastic container
  Reduction of the population (%): 97%
[4]; 750 ppm, Wood container
  Reduction of the population (%): 97%
[4]; 1050 ppm, Plastic container
  Reduction of the population (%): 98%
[4]; 1050 ppm, Wood container
  Reduction of the population (%): 97%
Penicillium digitatum; [10]
  Reduction of the population (%): 100%
Penicillium digitatum; organic matter Absence, 1 hour
  Reduction of the population (%): 100%
Penicillium digitatum; [11]
  Reduction of the population (%): 100%
Penicillium digitatum; [12]
  Reduction of the population (%): 100%
Penicillium digitatum; [13]
  Reduction of the population (%): 100%
Penicillium digitatum; [14]
  Reduction of the population (%): 100%
Penicillium digitatum; [15]
  Reduction of the population (%): 100%
Penicillium digitatum; [16]
  Reduction of the population (%): 100%
Penicillium expansum; [10]
  Reduction of the population (%): 68%
Penicillium expansum; organic matter Absence, 1 hour
  Reduction of the population (%): 82%
Penicillium expansum; [11]
  Reduction of the population (%): 45%
Penicillium expansum; [12]
  Reduction of the population (%): 68%
Penicillium expansum; [13]
  Reduction of the population (%): 73%
Penicillium expansum; [14]
  Reduction of the population (%): 41%
Penicillium expansum; [15]
  Reduction of the population (%): 36%
Penicillium expansum; [16]
  Reduction of the population (%): 18%
[5]; 750 ppm, Environment
  Reduction in the population of the mixture of fungi expressed in %: 89%
[5]; 750 ppm, Walls
  Reduction in the population of the mixture of fungi expressed in %: 96%
[5]; 1050 ppm, Environment
  Reduction in the population of the mixture of fungi expressed in %: 100%
[5]; 1050 ppm, Walls
  Reduction in the population of the mixture of fungi expressed in %: 97%
[6]; 60 ppm
  diameter of the microbial inhibition halo: 0 mm
[6]; 125 ppm
  diameter of the microbial inhibition halo: 11 mm
[6]; 250 ppm
  diameter of the microbial inhibition halo: 16 mm
[6]; 500 ppm
  diameter of the microbial inhibition halo: 28 mm
[6]; 1000 ppm
  diameter of the microbial inhibition halo: 35 mm
[7]
  phytotoxicity to the plant: did not suffer phytotoxicity
[8]; 60 ppm
  diameter of the microbial inhibition halo: 8 mm
[8]; 125 ppm
  diameter of the microbial inhibition halo: 9 mm
[8]; 250 ppm
  diameter of the microbial inhibition halo: 10 mm
[8]; 500 ppm
  diameter of the microbial inhibition halo: 12 mm
[8]; 1000 ppm
  diameter of the microbial inhibition halo: 14 mm
[9]; 60 ppm
  diameter of the microbial inhibition halo: 15 mm
[9]; 125 ppm
  diameter of the microbial inhibition halo: 22 mm
[9]; 250 ppm
  diameter of the microbial inhibition halo: 26 mm
[9]; 500 ppm
  diameter of the microbial inhibition halo: 30 mm
[9]; 1000 ppm
  diameter of the microbial inhibition halo: 30 mm
